Patent US20240076293A1, “Compositions and Methods for Inhibiting Fibrosis, Inflammation and Cancer” (Georgia Tech Research Corporation, priority 2020, published 2024)
Read-outs that look alike come from different tables or passages of the source.

Legend:
Format in all cases: cell-based
[1] = Anti-proliferation IC50, MRC-5; settings: human, MRC-5 cells; Table 1, compounds of formula I; NI = no inhibition up to 500 μM
[2] = tested on: A549; experiment: Anti-proliferation IC50, A549; settings: Homo sapiens
[3] = tested on: Hep-G2; experiment: Anti-proliferation IC50, Hep-G2; settings: Homo sapiens, HepG2
[4] = tested on: VERO; experiment: Anti-proliferation IC50, VERO; settings: Chlorocebus sabaeus
[5] = Table 1, compounds of formula I, NI = no inhibition up to 500 μM, read-out: A549 (IC50)
[6] = Table 1, compounds of formula I, NI = no inhibition up to 500 μM, read-out: Hep-G2 (IC50)
[7] = Table 1, compounds of formula I, NI = no inhibition up to 500 μM, read-out: VERO (IC50)

| IC50 [2, 5] [µM] | IC50 [3, 6] [µM] | IC50 ([2]; Table 2, compounds of formula II, read-out: Anti-proliferation IC50 A549) [µM] | IC50 ([3]; Table 2, compounds of formula II, read-out: Anti-proliferation IC50 Hep-G2) [µM] | SMILES | IC50 [1] [µM] | IC50 [4, 7] [µM] | IC50 ([4]; Table 2, compounds of formula II, read-out: Anti-proliferation IC50 VERO) [µM] |
| --- | --- | --- | --- | --- | --- | --- | --- |
| 44.1 ± 10.8 | 50.7 ± 3 | – | – | CCC1OC(=O)[C@H](C)[C@H](OC2C[C@@](C)(OC)[C@@H](O)[C@H](C)O2)[C@H](C)[C@@H](OC2O[C@H](C)C[C@H](N(C)CC#Cc3ccc(-n4cc(C)ccc4=O)cc3)[C@H]2O)[C@@](C)(OC)C[C@@H](C)C(=O)[C@H](C)[C@@H](O)[C@]1(C)O (some centres unmarked) [Compound 19a] | 82.6 ± 0.3 | 55.5 ± 2.6 | – |
| 59.9 ± 0.8 | 60.9 ± 9 | – | – | CCC1OC(=O)[C@H](C)[C@H](OC2C[C@@](C)(OC)[C@@H](O)[C@H](C)O2)[C@H](C)[C@@H](OC2O[C@H](C)C[C@H](N(C)CCC#Cc3ccc(-n4cc(C)ccc4=O)cc3)[C@H]2O)[C@@](C)(OC)C[C@@H](C)C(=O)[C@H](C)[C@@H](O)[C@]1(C)O (some centres unmarked) [Compound 19b] | > 500 | 130 ± 21.2 | – |
| 23.8 ± 2.1 | 23.7 ± 2 | – | – | CCC1OC(=O)[C@H](C)[C@H](OC2C[C@@](C)(OC)[C@@H](O)[C@H](C)O2)[C@H](C)[C@@H](OC2O[C@H](C)C[C@H](N(C)CCCCCC#Cc3ccc(-n4cc(C)ccc4=O)cc3)[C@H]2O)[C@@](C)(OC)C[C@@H](C)C(=O)[C@H](C)[C@@H](O)[C@]1(C)O (some centres unmarked) [Compound 19e] | 24.2 ± 0.6 | 13.2 ± 0.7 | – |
| 10.9 ± 0.4 | 36.4 ± 6.6 | – | – | CCC1OC(=O)[C@H](C)[C@H](OC2C[C@@](C)(OC)[C@@H](O)[C@H](C)O2)[C@H](C)[C@@H](OC2O[C@H](C)C[C@H](N(C)Cc3ccc(-c4cn(CCCCc5ccc(-n6cc(C)ccc6=O)cc5)nn4)cc3)[C@H]2O)[C@@](C)(OC)C[C@@H](C)C(=O)[C@H](C)[C@@H](O)[C@]1(C)O (some centres unmarked) [Compound 14c] | 11.6 ± 0.3 | 12.4 ± 0.2 | – |
| 118 ± 28.4 | 116 ± 16 | – | – | CCC1OC(=O)[C@H](C)[C@H](OC2C[C@@](C)(OC)[C@@H](O)[C@H](C)O2)[C@H](C)[C@@H](OC2O[C@H](C)C[C@H](N(C)Cc3cn(Cc4ccc(-n5cc(C)ccc5=O)cc4)nn3)[C@H]2O)[C@@](C)(OC)C[C@@H](C)C(=O)[C@H](C)[C@@H](O)[C@]1(C)O (some centres unmarked) [Compound 10b] | 102.6 ± 0.8 | 153 ± 19 | – |
| 16.9 ± 0.7 | 5.6 ± 0.1 | – | – | CC[C@H]1OC(=O)[C@@H](C)[C@@H](O[C@@H]2C[C@](C)(OC)[C@H](O)[C@@H](C)O2)[C@@H](C)[C@@H](O[C@H]2O[C@@H](C)C[C@@H](N(C)C)[C@@H]2OC(=O)/C=C/C=C/c2ccc3c(c2)OCO3)[C@](C)(OC)C[C@@H](C)C(=O)[C@H](C)[C@H](O)[C@]1(C)O | 7.8 ± 0.7 | 21 ± 2.3 | – |
| 5410 ± 241 | 10900 | – | – | Cc1ccc(=O)n(-c2ccccc2)c1 [Pirfenidone (Pir), Pirfenidone, reference compound] | 5300 ± 178 | 10788 ± 0.6 | – |
| > 500 | 130 | – | – | CC[C@H]1OC(=O)[C@H](C)[C@@H](O[C@H]2C[C@@](C)(OC)[C@@H](O)[C@H](C)O2)[C@H](C)[C@@H](O[C@@H]2O[C@H](C)C[C@H](N(C)C)[C@H]2O)[C@](C)(OC)C[C@@H](C)C(=O)[C@H](C)[C@@H](O)[C@]1(C)O [Clarithromycin (CLM), Clarithromycin, reference compound] | 138.1 ± 1.1 | > 500 | – |
| 204 ± 4.5 | 85.3 ± 0.9 | – | – | CC[C@H]1OC(=O)[C@H](C)[C@@H](O[C@H]2C[C@@](C)(OC)[C@@H](O)[C@H](C)O2)[C@H](C)[C@@H](O[C@@H]2O[C@H](C)C[C@H](N(C)C)[C@H]2O)[C@](C)(O)C[C@@H](C)CN(C)[C@H](C)[C@@H](O)[C@]1(C)O [Azithromycin (AZM), Azithromycin, reference compound] | 127 ± 1 | 222 ± 18.1 | – |
| > 500 | > 500 | – | – | CCC1OC(=O)[C@H](C)[C@H](OC2C[C@@](C)(OC)[C@@H](O)[C@H](C)O2)[C@H](C)[C@@H](OC2O[C@H](C)C[C@H](N(C)CCc3ccc(-n4cc(C)ccc4=O)cc3)[C@H]2O)[C@@](C)(OC)C[C@@H](C)C(=O)[C@H](C)[C@@H](O)[C@]1(C)O (some centres unmarked) [Compound 12a] | 119 | > 500 | – |
| 58.6 ± 1.4 | 24 ± 1.2 | – | – | CCC1OC(=O)[C@H](C)[C@H](OC2C[C@@](C)(OC)[C@@H](O)[C@H](C)O2)[C@H](C)[C@@H](OC2O[C@H](C)C[C@H](N(C)CCCC#Cc3ccc(-n4cc(C)ccc4=O)cc3)[C@H]2O)[C@@](C)(OC)C[C@@H](C)C(=O)[C@H](C)[C@@H](O)[C@]1(C)O (some centres unmarked) [Compound 19c] | 15.2 ± 0.1 | 55.5 ± 0.4 | – |
| 35.4 ± 2.1 | 32 ± 0.1 | – | – | CCC1OC(=O)[C@H](C)[C@H](OC2C[C@@](C)(OC)[C@@H](O)[C@H](C)O2)[C@H](C)[C@@H](OC2O[C@H](C)C[C@H](N(C)CCCCC#Cc3ccc(-n4cc(C)ccc4=O)cc3)[C@H]2O)[C@@](C)(OC)C[C@@H](C)C(=O)[C@H](C)[C@@H](O)[C@]1(C)O (some centres unmarked) [Compound 19d] | 28.9 ± 1.9 | 24.3 ± 0.1 | – |
| 116 ± 4.1 | 122 ± 3.7 | – | – | CCC1OC(=O)[C@H](C)[C@H](OC2C[C@@](C)(OC)[C@@H](O)[C@H](C)O2)[C@H](C)[C@@H](OC2O[C@H](C)C[C@H](N(C)Cc3cn(CCc4ccc(-n5cc(C)ccc5=O)cc4)nn3)[C@H]2O)[C@@](C)(OC)C[C@@H](C)C(=O)[C@H](C)[C@@H](O)[C@]1(C)O (some centres unmarked) [Compound 12b] | 84 ± 4.5 | 104 ± 20.3 | – |
| 35.3 ± 1.5 | 28.1 ± 1.8 | – | – | CCC1OC(=O)[C@H](C)[C@H](OC2C[C@@](C)(OC)[C@@H](O)[C@H](C)O2)[C@H](C)[C@@H](OC2O[C@H](C)C[C@H](N(C)Cc3ccc(-c4cn(CCc5ccc(-n6cc(C)ccc6=O)cc5)nn4)cc3)[C@H]2O)[C@@](C)(OC)C[C@@H](C)C(=O)[C@H](C)[C@@H](O)[C@]1(C)O (some centres unmarked) [Compound 12c] | 13.1 ± 1.2 | 14.2 ± 0.3 | – |
| 28.7 ± 3.4 | 44.8 ± 3.6 | – | – | CCC1OC(=O)[C@H](C)[C@H](OC2C[C@@](C)(OC)[C@@H](O)[C@H](C)O2)[C@H](C)[C@@H](OC2O[C@H](C)C[C@H](N(C)Cc3cn(CCCCc4ccc(-n5cc(C)ccc5=O)cc4)nn3)[C@H]2O)[C@@](C)(OC)C[C@@H](C)C(=O)[C@H](C)[C@@H](O)[C@]1(C)O (some centres unmarked) [Compound 14b] | 32.8 ± 5.1 | 33.3 ± 1.9 | – |
| – | – | 214 | 126 | CC[C@@H]1OC(=O)[C@@H](C)[C@H](O[C@H]2C[C@@](C)(OC)[C@@H](O)[C@H](C)O2)[C@@H](C)[C@H](O[C@H]2O[C@@H](C)C[C@@H](N(C)C(=O)/C=C/C(=O)OC)[C@@H]2O)C(C)(O)C[C@H](C)CN(C)[C@@H](C)[C@H](O)[C@@]1(C)O (some centres unmarked) | – | – | 212 |
| 16.3 ± 1.6 | 30.9 ± 1.4 | – | – | CCC1OC(=O)[C@H](C)[C@H](OC2C[C@@](C)(OC)[C@@H](O)[C@H](C)O2)[C@H](C)[C@@H](OC2O[C@H](C)C[C@H](N(C)CCCCc3ccc(-n4cc(C)ccc4=O)cc3)[C@H]2O)[C@@](C)(OC)C[C@@H](C)C(=O)[C@H](C)[C@@H](O)[C@]1(C)O (some centres unmarked) [Compound 14a] | 15.7 ± 2.3 | 19 ± 3.7 | – |

| SMILES | IC50 [2, 5] [µM] | IC50 [3, 6] [µM] | IC50 ([2]; Table 2, compounds of formula II, read-out: Anti-proliferation IC50 A549) [µM] | IC50 ([3]; Table 2, compounds of formula II, read-out: Anti-proliferation IC50 Hep-G2) [µM] | IC50 [1] [µM] | IC50 [4, 7] [µM] | IC50 ([4]; Table 2, compounds of formula II, read-out: Anti-proliferation IC50 VERO) [µM] |
| --- | --- | --- | --- | --- | --- | --- | --- |
| O=C(O)/C=C/C=C/c1ccc2c(c1)OCO2 [Piperic acid (PPA), Piperic acid, reference compound] | > 500 | > 500 | – | – | > 500 | > 500 | – |
